What was measured:
Type in all cases: physicochemical
[1] = Hygroscopy, dynamic vapour sorption (DVS) isotherms (Example 15)
Experimental: Water sorption isotherms were determined using a DVS Resolution gravimetric sorption analyzer (London, UK), or a DVS Intrinsic instrument (Surface measurement Systems). The sample was dried for 1000 minutes at 0% relative humidity (R.H.). Afterwards the dry weight was recorded. […] The equilibrium criterion for each relative humidity set point was 0.002% per minute relative mass change as a function of time.

[2] = Dissolution profile, flow through cell in FeSSIF / FaSSIF (Example 16); conditions: micronized samples
Experimental: Prior to the measurements, the samples were micronized using a jet mill (MC DECJET 30) under nitrogen, with a pressure of 4.5 Bar for the injector and 4.0 Bar grinding pressure.
Dissolution rates of the drug substance were then determined using a flow through cell (FTC) from Sotax. All experiments were conducted in triplicates.
Then, the respective medium (FaSSIF or FeSSIF) was pumped through the cell with a pump rate of 2 mL/min for a total time of 14 minutes, resulting in a total volume of 28 mL. This volume was collected in time increments of 2 minutes, leading to 7 collected fractions with 4 mL each. The drug substance concentration of each fraction was determined by HPLC (external standard).

[3] = Solubility of cholinate vs free acid and other salts, shake-flask method (Example 14)
Experimental: Preparation of FaSSIF (Fasted State Simulated Intestinal Fluid) blank solution: 4.2 g NaOH, 44.7 g NaH2PO4*2 H2O, and 61.86 g NaCl were dissolved in approximately 9.5 L demineralized water. Then, the pH of this solution was adjusted to 6.50+/−0.05 using HCl or NaOH, respectively. In the last step, the final volume was adjusted to 10.0 L by the addition of demineralized water.
Preparation of the final FaSSIF solution: 4.48 g SIF (Simulated Intestinal Fluids) powder (provider: biorelevant.com, Product code: FFF01 (May 2022)) were dissolved in approximately 500 mL FaSSIF blank solution, then the final volume was adjusted to 2.0 L by the addition of FaSSIF blank solution. After 2 hours, the solution was considered to be ready to use and was used within 48 hours.
Preparation of FeSSIF (Fed State Simulated Intestinal Fluid) blank solution: 40.4 g NaOH, 118.74 g NaCl, and 82.4 mL glacial acetic acid were dissolved in approximately 9.5 L demineralized water. Then, the pH of this solution was adjusted to 5.00+/−0.05 using HCl or NaOH, respectively. In the last step, the final volume was adjusted to 10.0 L by the addition of demineralized water.
Preparation of the final FeSSIF solution: 22.4 g SIF powder (provider: biorelevant.com, Product code: FFF01 (May 2022)) were dissolved in approximately 500 mL FeSSIF blank solution, then the final volume was adjusted to 2.0 L by the addition of FeSSIF blank solution. The solution was considered to be ready to use immediately after manufacturing and was used within 48 hours.

**Q.** With `O=C([O-])c1cc(NC(=O)C2(c3ccc(C(F)(F)F)cc3F)CC2)ccc1-c1cnn(C2CCC2)c1.[Na+]` [Sodium salt, Sodium 2-(1-cyclobutyl-1H-pyrazol-4-yl)-5-[({1-[2-fluoro-4-(trifluoromethyl)phenyl]cyclopropyl}carbonyl)amino]benzoate] as the molecule, how does the “Change in mass [%], Desorption” value ([1]; 0% Relative humidity) read?
**A.** Its value is −3.95%.

**Q.** And the “Change in mass [%], Sorption” value ([1]; 0% Relative humidity)?
**A.** Its value is 0.00%.

**Q.** What about the “Change in mass [%], Desorption” value ([1]; 10% Relative humidity) of the same molecule?
**A.** The value was −0.87%.

**Q.** And the “Change in mass [%], Sorption” value ([1]; 10% Relative humidity)?
**A.** The value was 0.85%.

**Q.** And the “Change in mass [%], Desorption” value ([1]; 20% Relative humidity)?
**A.** The value was 0.84%.

**Q.** And the “Change in mass [%], Sorption” value ([1]; 20% Relative humidity)?
**A.** Its value is 1.36%.

**Q.** And the “Change in mass [%], Desorption” value ([1]; 30% Relative humidity)?
**A.** Its value is 1.91%.

**Q.** What about the “Change in mass [%], Sorption” value ([1]; 30% Relative humidity) of the same molecule?
**A.** The value was 1.92%.

**Q.** And the “Change in mass [%], Desorption” value ([1]; 40% Relative humidity)?
**A.** The value was 3.33%.

**Q.** And the “Change in mass [%], Sorption” value ([1]; 40% Relative humidity)?
**A.** Its value is 2.95%.

**Q.** And the “Change in mass [%], Desorption” value ([1]; 50% Relative humidity)?
**A.** Its value is 5.07%.

**Q.** What about the “Change in mass [%], Sorption” value ([1]; 50% Relative humidity) of the same molecule?
**A.** The value was 7.77%.

**Q.** What about the “Change in mass [%], Desorption” value ([1]; 60% Relative humidity) of the same molecule?
**A.** Its value is 7.95%.

**Q.** And the “Change in mass [%], Sorption” value ([1]; 60% Relative humidity)?
**A.** The value was 11.23%.

**Q.** And the “Change in mass [%], Desorption” value ([1]; 70% Relative humidity)?
**A.** The value was 11.79%.

**Q.** And the “Change in mass [%], Sorption” value ([1]; 70% Relative humidity)?
**A.** Its value is 15.05%.

**Q.** And the “Change in mass [%], Desorption” value ([1]; 80% Relative humidity)?
**A.** The value was 16.87%.

**Q.** And the “Change in mass [%], Sorption” value ([1]; 80% Relative humidity)?
**A.** Its value is 20.22%.

**Q.** What about the “Change in mass [%], Desorption” value ([1]; 90% Relative humidity) of the same molecule?
**A.** Its value is 26.84%.

**Q.** What about the “Change in mass [%], Sorption” value ([1]; 90% Relative humidity) of the same molecule?
**A.** The value was 30.67%.

**Q.** And the “Change in mass [%], Desorption” value ([1]; 95% Relative humidity)?
**A.** The value was 42.62%.

**Q.** And the “Change in mass [%], Sorption” value ([1]; 95% Relative humidity)?
**A.** Its value is 42.62%.

**Q.** And the “DVS Dm @ 30% R.H. (Sorption)” value ([1]; summarized results, 30% R.H.)?
**A.** Its value is 1.9%.

**Q.** What about the “DVS Dm @ 50% R.H. (Sorption)” value ([1]; summarized results, 50% R.H.) of the same molecule?
**A.** The value was 5.1%.

**Q.** And the “DVS Dm @ 80% R.H. (Sorption)” value ([1]; summarized results, 80% R.H.)?
**A.** Its value is 20.2%.

**Q.** And the “Dissolution profile, comparison in words” value [2]?
**A.** Its value is “no differences”.

**Q.** What about the solubility ([3]; Buffer pH 4.5, 25° C.) of the same molecule?
**A.** Its solubility is 3 mgfree acid/L.

**Q.** What about the solubility ([3]; Buffer pH 7, 25° C.) of the same molecule?
**A.** The solubility was 421 mgfree acid/L.

**Q.** What about the solubility ([3]; Buffer pH 8, 25° C.) of the same molecule?
**A.** The solubility was 5075 mgfree acid/L.

**Q.** And the solubility ([3]; FaSSIF (37° C.) (Fasted State Simulated Intestinal Fluid))?
**A.** The solubility was 426 mgfree acid/L.

**Q.** And the solubility ([3]; FeSSIF (37° C.) (Fed State Simulated Intestinal Fluid))?
**A.** The solubility was 14 mgfree acid/L.

**Q.** What about the solubility ([3]; Water, 25° C.) of the same molecule?
**A.** The solubility was 6176 mgfree acid/L.

— patent publication US20250282734A1 (Bayer Aktiengesellschaft, priority 2021, published 2025)
